Assay results reported in patent US11634381B2, “RUNX2 transcription factor inhibitors and uses thereof” (University of Maryland, Baltimore, priority 2015, dated 2023).

Tests used:
breast cancer cells [1] = assay: Cell cycle analysis by flow cytometry; type: cell-based, human; conditions: 50 μM
Protocol: Cells (1×10^6 cells/ml) were starved in serum-free medium for 24 hrs, and released in 10% serum-medium with or without compound 1 (50 μM) for 16-24 hrs for cell cycle transition. Cells were then fixed in 70% ethanol at 4° C. for 1 hr, resuspended in 1 ml PBS containing 20 μg/ml propidium iodide, 20 μg/ml RNase A, incubated for 30 min at room temperature, and analyzed with a Becton Dickinson LSR-II at the Flow Cytometry Core Laboratory at the University of Maryland. Ten thousand events per sampl were collected and analyzed using the Cell-Quest (BD Biosciences).

MCF7-tet-off cells = assay: 96 Well BME Cell Invasion Assay; type: cell-based, human; conditions: MCF7-tet-off (+Doxy) and (-Doxy), 50 μM, 24 hrs
Protocol: MCF7-tet-off cells were grown in the media with (+Doxy) or without doxycycline (−Dox) for 72 hours. Cells were then treated with compound 1 (50 μM) for 24 hrs, and trypsinized and suspended in serum-free media. Cells were re-plated in the top chamber precoated with 0.1× BME (Cultrex), and growth medium supplemented with 10% FBS was used as a chemoattractant in the bottom chamber. compound 1 was added to both chambers and incubated for 16 hrs. Cellular invasion was analyzed according to the 96 Well BME Cell Invasion Assay protocol (Cultrex).

Lats1/2 = Lats1/2 phosphorylation (Hippo signaling); type: cell-based, human; conditions: compound 1, 24 hours
Protocol: In FIG. 22A HCC1428 luminal BC cells that express E-Cadherin were treated with recombinant soluble E-Cadherin (rsE-Cad) for 24 hr and total cell extracts were analyzed for phosphorylation of the Lats1/2 tumor suppressors. Phospho.Lats1/2 and total Lats1/2 levels declined with rsE-Cad treatment consistent with TAZ translocation to the nucleus, where it acts as an oncogene with RUNX2. […] MCF7 cells expressing RUNX2 (Tet.OFF) were treated with compound 1 drug for 24 hours and total cell extracts were analyzed for phosphp.Lats1/2, total Lats1/2, and RUNX2 expression.

breast cancer cells [2] = assay: Caspase 3/7 assay; type: cell-based, human; conditions: 50 μM, within 72 hrs
Protocol: Cells were cultured in 96-well plates (30,000 cells/well). After compound 1 treatment for 24-72 hrs, cellular apoptosis was analyzed using the Caspase-Glo 3/7 Assay kit (Promega) according to the manufacturer's instructions.

Complex I = Complex I activity; type: cell-based, human; conditions: MDA-468 and MCF7 cells, 50 μM, 1-3 days
Protocol: In FIG. 26A MDA-231, MDA-468, MCF7, and BT-474 breast cancer cells were treated with compound 1 (50 μM) for 1-3 days. Complex I activity increased in MDA-468 and MCF7 cells. In FIG. 26B T47D-Vector control or T47D-RUNX2-clone #10 overexpressing cells; MCF7-Vector Control or RUNX2-clone #2 overexpressing cells were treated with 50 μM compound 1 for 1 day.

MCF7 RUNX2 Tet.OFF cells = assay: Suspension culture tumorsphere formation; type: cell-based, human; conditions: for tumorsphere diameter: 50 μM compound 1, 12 days
Protocol: MCF7 Tet.OFF cells were grown in the presence (+Dox, RUNX2 negative) or absence (−Dox, RUNX2 positive) of doxycycline for 3 days. Cells were then scraped and counted. 60,000 cells were plated in each well of a 6-well ultra-low attachment plate (Corning; 3471) in Promocell Basal Medium (Promocell; c-22211) complete with Supplement Mix (Promocell; c-39216). Cells were then treated with or without 2 ng/mL TGFβ (R&D Systems; 240-B-002). After growth for 10-15 days, wells were photographed and tumorsphere diameters were measured from photographic images (mm). Colony diameters were calculated using the formula: (L+W)/2. Representative photographs were obtained at 4× magnification. […] For TAZ siRNA knockdown experiments, TAZ siRNA was transfected (as below) into MCF7 Tet.OFF cells and 24 hr later cells were scraped and placed into suspension as described above. Small-Interfering RNA (siRNA) pool targeting RUNX1, RUNX2, and non-targeting control were purchased from Dharmacon, and transfected into cells using RNAiMAX Reagent (Invitrogen). Western blot analysis was performed 48 hrs after transfection.

RUNX2 = RUNX2 (Homo sapiens, UniProt Q13950); assay: Western blot of RUNX2, RUNX1, CBF-β; type: cell-based; design: endogenous in cells; host or cells: MDA-231, MDA-468
Protocol: Whole cell lysates extracted in RIPA buffer (Upstate) were separated on 4-12% gradient SDS-PAGE and transferred to nitrocellulose membrane. The blots were incubated with specific antibodies for each protein overnight at 4° C. After antibody washing, the blots were reacted with their respective secondary antibody and detected with enhanced chemiluminescence reagents (Millipore) according to the supplier's protocol. Antibodies for proteins were purchased as below. RUNX1, RUNX2, CBF-β, ubiquitin and caspase-3 (Cell Signaling Technologies), S451-p-RUNX2 (Bioss Gentaur, Belgium), RUNX3 and Glut-1 (Millipore, Calif.), β-actin and RUNX2 antibody for IHC (Sigma-Aldrich), and Ki-67 for IHC (Bethyl Laboratories, Inc, TX).

[3] = test system: MDA-231, MDA-468, MCF7 and BT474 breast cancer cells; assay: ROS production luminometer assay; type: cell-based, human; conditions: 0-100 μM, 6-18 hours
Protocol: In FIG. 27A MDA-231, MDA-468, MCF7 and BT474 breast cancer cells were treated with compound 1 (0-100 μM) for 6-18 hours and ROS production in response to H2O2 treatment (2 mM) was measured with luciferase-based luminometer assay. In FIG. 27B T47D-Vector control or T47D-RUNX2-clone #10 overexpressing cells; MCF7-Vector Control or RUNX2-clone #2 overexpressing cells were treated with 50 μM compound 1 for 6 hours.

RUNX2, sequence (Q13950 whole entry): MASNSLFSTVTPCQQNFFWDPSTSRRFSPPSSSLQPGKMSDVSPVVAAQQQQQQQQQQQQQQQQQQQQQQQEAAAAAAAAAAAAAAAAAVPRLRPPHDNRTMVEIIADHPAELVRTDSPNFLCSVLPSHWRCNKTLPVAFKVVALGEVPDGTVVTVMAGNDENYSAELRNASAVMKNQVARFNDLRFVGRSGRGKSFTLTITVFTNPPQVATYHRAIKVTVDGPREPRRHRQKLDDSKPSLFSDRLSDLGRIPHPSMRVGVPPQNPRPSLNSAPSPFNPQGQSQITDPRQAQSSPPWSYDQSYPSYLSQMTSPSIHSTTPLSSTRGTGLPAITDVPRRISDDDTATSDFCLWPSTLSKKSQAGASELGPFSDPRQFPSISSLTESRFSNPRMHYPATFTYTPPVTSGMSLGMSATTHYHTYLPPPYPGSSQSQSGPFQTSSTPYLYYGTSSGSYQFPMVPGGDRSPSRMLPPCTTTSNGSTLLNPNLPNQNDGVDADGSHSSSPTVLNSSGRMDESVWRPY

`O=C(O)C1C2C=CC(C2)C1C(=O)Nc1ccc(Cl)c(Cl)c1` (stereo not drawn) [compound 1, 3-(N-(3,4-dichlorophenyl)carbamoyl)-5-norbornene-2-carboxylic acid] was tested, and the cell cycle distribution (breast cancer cells [1]) was “increased cell populations at the G1 phase with reduction at the S phase”, the invasiveness (MCF7-tet-off cells) was “almost abrogated” and the “phosphorylation of the Lats1/2 tumor suppressors” value (Lats1/2) was “increase in phosphorylation”. The “caspase-3/7 activity compared to vehicle controls” value (breast cancer cells [2]) was “no change”, the “Complex I activity” value (Complex I) was “increased” and the tumorsphere diameter (MCF7 RUNX2 Tet.OFF cells; RUNX2 negative cells) was 6.37±1.78 mm. The “fold inhibition of tumorsphere diameter relative to vehicle” value (MCF7 RUNX2 Tet.OFF cells; RUNX2 positive cells, 50 μM compound 1) was ~4 fold, the tumorsphere diameter (MCF7 RUNX2 Tet.OFF cells; RUNX2 positive cells) was 4.83±1.87 mm and the “nuclear translocation of RUNX2 protein” value (RUNX2) was “did not block or attenuate”. For the same molecule, the S451-p-RUNX2 levels (RUNX2; Empty controls, MDA-468 and MCF7) was “clearly reduced”, the RUNX2 protein stability (RUNX2; MDA-468 and MDA-231 cells, cycloheximide, 50 μM) was “increased RUNX2 stability” and the “mitochondrial ROS production” value [3] was “increase in mitochondrial ROS production”.
